Laboratory results published in ChEMBL document CHEMBL1154959, “The role of phosphate in the action of thymidine phosphorylase inhibitors: Implications for the catalytic mechanism” (Bioorg Med Chem Lett, 2010).
Calls of active or inactive are those of the source. No cut-off for these calls is given here.

Tests used:
Thymidine phosphorylase = Thymidine phosphorylase (Escherichia coli K-12, UniProt P07650); assay: Inhibition of Escherichia coli thymidine phosphorylase
[1] = molecular target: Thymidine phosphorylase (Escherichia coli K-12) (UniProt P07650); assay: Inhibition of Escherichia coli thymidine phosphorylase by spectrophotometry
Thymidine phosphorylase (Escherichia coli K-12), sequence (P07650 whole entry, looked up): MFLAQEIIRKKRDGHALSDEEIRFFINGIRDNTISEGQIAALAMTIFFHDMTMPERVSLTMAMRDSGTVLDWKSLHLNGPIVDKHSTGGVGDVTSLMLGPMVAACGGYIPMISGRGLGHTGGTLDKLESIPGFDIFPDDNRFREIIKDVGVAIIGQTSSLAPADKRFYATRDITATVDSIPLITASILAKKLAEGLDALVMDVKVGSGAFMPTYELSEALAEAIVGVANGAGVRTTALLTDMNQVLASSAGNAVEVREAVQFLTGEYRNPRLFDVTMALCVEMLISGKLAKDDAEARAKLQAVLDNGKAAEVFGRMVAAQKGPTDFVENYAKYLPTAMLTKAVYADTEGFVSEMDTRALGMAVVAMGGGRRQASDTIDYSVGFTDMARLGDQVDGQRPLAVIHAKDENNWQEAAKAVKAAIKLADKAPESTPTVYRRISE

Thymidine phosphorylase, sequence (P07650 whole entry): as the sequence (P07650 whole entry, looked up) above

SMILES	Ki (Thymidine phosphorylase)	Activity [1]
Cc1cn([C@@H]2O[C@H](CO)[C@H]3C[C@@H](CP(=O)(O)O)O[C@H]32)c(=O)[nH]c1=O	1000 nM	–
N=C1CCCN1Cc1[nH]c(=O)[nH]c(=O)c1Cl	35 nM	–
Nc1c(Br)c(=O)[nH]c(=O)n1CCCCCCCCP(=O)(O)O	476000 nM	–
Nc1nccn1Cc1[nH]c(=O)[nH]c(=O)c1F	11 nM	Active
O=c1[nH]c(Cn2ccnc2)c(F)c(=O)[nH]1	51 nM	–
